Values quoted from earlier work as cited in patent publication US20230073516A1, “INTRAORAL FAST-DISINTEGRATING FORMULATION CONTAINING HEMP OIL EXTRACT OR HEMP POWDER EXTRACT AS RAW MATERIAL OF FORMULATION” (CTC SCIENCE INC., priority 2019, published 2023).

Details: absorbed while passing through the gastrointestinal tract

C=C(C)[C@@H]1CCC(C)=C[C@H]1c1c(O)cc(CCCCC)cc1O [cannabidiol]
Bioavailability of cannabidiol: 13-19%
